Consider one molecule from patent US11827624B2, “Covalent immune recruiter compounds for immune cell recognition and associated uses” (McMaster University, priority 2020, dated 2023).

For assay [1], the system named is PSMA+HEK cells. In words: Two-color flow cytometry ADCP (CD64) assay with mAb on PSMA+HEK cells. The assay is classed as cell-based, human. An excerpt: (§1) ADCP flow cytometry experiments were run on a BD LSRII Flow Cytometer. The human IgG isotype control used was purchased from Jackson ImmunoResearch (009-000-003). The human IgG1 monoclonal anti-DNP antibody (mAb) was purchased from acrobiosystems (DNP-M2). PSMA expression was confirmed with an anti-PSMA antibody Alexa 647 conjugate (Novus Biologicals, Catalog #FAB4234R). For PSMA competition controls, PMPA was purchased from Sigma (SML1612). Hek-293T (PSMA+/−) cell lines were generously given by Dr. Cyril Barinka (Institute of Biotechnology CAS, Czech Republic). U937 cells were generously given by Dr. John Valliant (McMaster University, Canada). LNCaP cells were generously given by Dr. Karen Mossman (McMaster University, Canada). IFN-γ was purchased from Fischer Scientific (PHC4031). Ultra low IgG FBS was purchased from Fischer Scientific (A3381901). RPMI-1640 was purchased as a powder from Fischer Scientific (31800089) and resuspended. DMEM was purchased as a powder from Fischer Scientific (12800082) and resuspended. […]
(§2) For preparation of effector monocytes, 24 hours prior to inducing phagocytosis U937 monocytes were seeded at 500,000 cells/mL and activated with IFN-γ ([…]). After incubation, these cells were then counted and washed twice with serum free assay media (neat RPMI). […] These cells were then counted and washed twice with serum free assay media (neat RPMI). […]

Assay [2] relates to PSMA+HEK cells. In words: Two-colour flow cytometry ADCP (CD64) assay with mmAb on PSMA+HEK cells. The class given is cell-based, human.
Source text: as §1, §2

As to `O=C(O)CC[C@H](NC(=O)N[C@@H](CCCCNC(=O)NCCOCCOCCOCCOCCOCCOCCOCCOC(=O)n1cnc(CCNC(=O)CNc2ccc([N+](=O)[O-])cc2[N+](=O)[O-])c1)C(=O)O)C(=O)O` [CIR 3], the results for the “CD64 based target immune recognition (phagocytosis)” value with PSMA+HEK cells [1] and in the assay on PSMA+HEK cells [2] were “substantial functional enhancement relative to ARM 11 across all antibody concentrations tested” and “only provided a functional enhancement relative to ARM 11 at low antibody concentrations”, respectively.
